Experimental data published in patent publication US20020164620A1, “Method for identifying compounds modulating sister chromatid separation” (Boehringer Ingelheim International GmbH, priority 2001, published 2002).
“Also recorded” adds a separate entry of the source. No end group written: not given here. *: point of attachment. acyloxymethyl ketone = C-terminal acyloxymethyl ketone; Biotin = O=C1N[C@H]2[C@H](CS[C@H]2CCCCC(=O)*)N1

Experiments:
[1] = molecular target: human separase (Homo sapiens, UniProt Q14674); details: same concentration at which SCC1 cleavage was inhibited
Sequence of human separase (Homo sapiens, UniProt Q14674) (Q14674 whole entry): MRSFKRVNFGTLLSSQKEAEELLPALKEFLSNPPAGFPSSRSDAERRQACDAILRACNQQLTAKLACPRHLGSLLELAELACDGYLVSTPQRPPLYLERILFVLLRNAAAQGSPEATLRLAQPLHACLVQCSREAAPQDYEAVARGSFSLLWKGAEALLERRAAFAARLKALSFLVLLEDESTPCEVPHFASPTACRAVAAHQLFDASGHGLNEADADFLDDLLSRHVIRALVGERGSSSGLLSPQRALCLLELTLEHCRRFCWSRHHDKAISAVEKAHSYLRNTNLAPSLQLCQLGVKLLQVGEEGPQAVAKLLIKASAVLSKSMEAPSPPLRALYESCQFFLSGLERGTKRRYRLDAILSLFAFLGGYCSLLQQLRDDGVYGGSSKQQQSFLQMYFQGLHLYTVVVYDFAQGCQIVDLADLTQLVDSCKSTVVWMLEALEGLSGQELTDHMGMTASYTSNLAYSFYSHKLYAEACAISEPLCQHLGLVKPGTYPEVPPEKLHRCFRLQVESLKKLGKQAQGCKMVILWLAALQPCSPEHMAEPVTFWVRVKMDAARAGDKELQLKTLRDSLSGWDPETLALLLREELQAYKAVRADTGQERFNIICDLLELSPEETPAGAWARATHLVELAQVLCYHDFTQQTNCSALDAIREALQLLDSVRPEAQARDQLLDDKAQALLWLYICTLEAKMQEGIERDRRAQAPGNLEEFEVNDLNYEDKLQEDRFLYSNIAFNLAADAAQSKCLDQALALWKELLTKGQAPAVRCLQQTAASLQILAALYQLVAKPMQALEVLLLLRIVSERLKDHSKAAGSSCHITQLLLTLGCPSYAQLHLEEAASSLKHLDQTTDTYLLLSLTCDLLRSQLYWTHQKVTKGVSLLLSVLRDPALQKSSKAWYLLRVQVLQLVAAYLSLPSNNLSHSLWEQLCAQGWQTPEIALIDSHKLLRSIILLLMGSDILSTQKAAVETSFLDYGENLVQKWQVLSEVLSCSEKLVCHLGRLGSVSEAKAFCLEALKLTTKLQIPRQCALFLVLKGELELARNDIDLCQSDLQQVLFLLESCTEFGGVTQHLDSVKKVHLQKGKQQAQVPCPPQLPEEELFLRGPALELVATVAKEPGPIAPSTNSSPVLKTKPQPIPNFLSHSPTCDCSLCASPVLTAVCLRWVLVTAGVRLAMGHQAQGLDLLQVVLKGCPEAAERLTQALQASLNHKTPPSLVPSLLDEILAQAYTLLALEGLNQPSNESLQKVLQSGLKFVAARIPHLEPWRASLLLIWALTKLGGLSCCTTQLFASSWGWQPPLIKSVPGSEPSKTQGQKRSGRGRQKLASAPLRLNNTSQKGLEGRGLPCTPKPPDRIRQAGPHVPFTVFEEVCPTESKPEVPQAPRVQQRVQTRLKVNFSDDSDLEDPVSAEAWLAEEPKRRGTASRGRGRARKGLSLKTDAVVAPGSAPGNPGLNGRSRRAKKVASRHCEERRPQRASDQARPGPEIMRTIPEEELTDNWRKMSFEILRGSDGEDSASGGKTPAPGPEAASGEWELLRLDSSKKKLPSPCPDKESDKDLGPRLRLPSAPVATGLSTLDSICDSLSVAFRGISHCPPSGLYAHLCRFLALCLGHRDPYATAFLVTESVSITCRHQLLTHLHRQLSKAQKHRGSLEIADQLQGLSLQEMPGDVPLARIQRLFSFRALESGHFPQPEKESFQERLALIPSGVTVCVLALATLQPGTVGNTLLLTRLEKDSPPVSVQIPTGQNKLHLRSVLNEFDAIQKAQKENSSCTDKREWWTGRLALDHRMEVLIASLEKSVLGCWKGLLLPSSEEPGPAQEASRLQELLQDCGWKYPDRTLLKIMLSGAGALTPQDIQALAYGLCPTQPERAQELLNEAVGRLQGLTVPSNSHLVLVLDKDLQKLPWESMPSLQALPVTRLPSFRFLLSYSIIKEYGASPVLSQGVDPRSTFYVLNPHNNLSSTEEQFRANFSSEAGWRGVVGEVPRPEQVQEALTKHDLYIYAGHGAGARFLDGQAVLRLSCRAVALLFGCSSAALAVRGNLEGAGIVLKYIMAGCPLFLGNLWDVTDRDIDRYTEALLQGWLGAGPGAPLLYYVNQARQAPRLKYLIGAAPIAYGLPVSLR
Method: A. Mitotically activated separase immunoprecipitates were preincubated with yeast peptides (Uhlmann et al., 2000) before they were used in the SCC1-cleavage assay. Biotin-SVEQGR-amk or Biotin-SVEQGR-cmk were used at different concentration (0.1, 1, 10, 100, 1000 μM in XB+0.5 mM DTT). Separase immunoprecipitates were incubated for 10 minutes, 22° C. and 1200 rpm. The SCC1 in vitro cleavage assay was performed after washing once with XB+0.5 mM DTT (see above). Human peptides, Biotin-DREIMR-amk or DREIMR-amk, were diluted and used as above described for the yeast peptides.

[2] = tested on: human separase; test: Covalent labelling of separase forms by biotin peptide (avidin blot); assay type: binding
Sequence of human separase (Q14674 1536-2120 limits assumed): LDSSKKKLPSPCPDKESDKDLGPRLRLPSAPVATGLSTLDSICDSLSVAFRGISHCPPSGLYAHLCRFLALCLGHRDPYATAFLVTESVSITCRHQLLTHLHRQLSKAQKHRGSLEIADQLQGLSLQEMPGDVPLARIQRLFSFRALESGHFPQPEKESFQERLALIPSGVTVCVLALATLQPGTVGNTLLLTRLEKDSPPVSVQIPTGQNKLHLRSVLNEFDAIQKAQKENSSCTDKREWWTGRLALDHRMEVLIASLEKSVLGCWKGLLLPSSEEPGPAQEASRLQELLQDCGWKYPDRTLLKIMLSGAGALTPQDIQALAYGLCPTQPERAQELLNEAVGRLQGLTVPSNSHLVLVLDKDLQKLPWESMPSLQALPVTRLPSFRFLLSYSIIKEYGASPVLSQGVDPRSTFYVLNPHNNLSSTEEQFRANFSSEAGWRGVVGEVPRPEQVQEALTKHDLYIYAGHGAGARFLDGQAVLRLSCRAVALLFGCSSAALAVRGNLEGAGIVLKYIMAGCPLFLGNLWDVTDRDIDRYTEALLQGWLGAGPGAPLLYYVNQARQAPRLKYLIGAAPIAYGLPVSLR
Method: (§1) B. Separase immunoprecipitates were incubated with 100 μM Biotin-SVEQGR-amk or with DMSO prior mitotic activation. Incubation for 10 minutes, 22° C. and 1000 rpm. After washing twice in XB+1 mM DTT the activation was performed in mitotic Xenopus egg extracts.
(§2) Interphase Xenopus egg extracts were driven into mitosis in the presence of 1 mM Biotin-SVEQGR-amk or DMSO. Those mitotic Xenopus egg extracts were used to activate a batch of separase immunoprecipitates.
Biotin labeled peptides were detected via immunoblotting according to Faleiro et al., 1997.
C. Mitotically activated separase immunoprecipitates were preincubated with either 8 μg recombinant securin or with 8 μg of a C-terminal truncated version of cyclinB in 100 μl XB+1 mM DTT for 30 min at 22° C. and 1250 rpm. Subsequently the beads were washed twice with TBS+0.5 M NaCl+1 mM DTT+0.5% Tween 20 and twice with XB+1 mM DTT. Thereafter beads were incubated with 100 μl of 100 μM Bio-DREIMR-amk in XB+[…]. After 10 min incubation at 22° C. and 1250 rpm beads were again washed and analyzed by immunoblotting.
FIG. 4B: Separase IPs (see A) were either preincubated with Biotin-SVEQGR-amk (preinc. with inh. peptide) or with DMSO (preinc. with DMSO), subsequently washed and aliquots were taken. Thereafter they were incubated in mitotic Xenopus egg extracts and washed again. Samples were taken for analysis (1i, 1c). Separase IPs were activated either in mitotic Xenopus egg extracts which were driven into mitosis in the presence of Biotin-SVEQGR-amk or DMSO, subsequently washed and aliquots were taken for analysis (2i, 2c). Already mitotically activated separase IPs (see A) were incubated with Biotin-SVEQGR-amk or DMSO, thereafter washed and aliquots were taken for analysis (3i, 3c). All samples were analysed by immunoblotting with avidin.
FIG. 4D: Activated separase immunoprecipitates bound by antibodies against the C-terminus of separase to beads were first incubated with recombinant securin or, for control, with recombinant truncated cyclinB. […] Thereafter, the immunoprecipitates were again washed and analyzed by immunoblotting.

[3] = tested on: human separase; test: SCC1 in vitro cleavage assay; assay type: biochemical
Method: 30 microliter beads were incubated with 40 μg bacterially expressed wildtype securin, destruction box deleted form of securin (Gmachl et al., 2000) or BSA diluted in XB+1 mM DTT for 40 min at RT. Subsequently the beads were washed with XB+1 mM DTT and with TBS+0.5 M NaCl+1 mM DTT+0.5% TWEEN20, followed by one wash with XB+1 mM DTT. To control the rebinding of securin an aliquot of 5 μl was taken per assay and subsequently analysed by immunoblotting with antibodies against separase and securin.
The beads were used for the SCC1 in vitro cleavage assay: 20 μl beads were mixed with 30 μl of the following SCC1 in vitro translation mix (SCC1 myc IVT+1 μl PLK-GST+0.3 μl […], 0.3 μl 100 mM ATP, 0.12 μl 250 mM EGTA, 13.78 μl XB+1 mM DTT) and incubated at 22° C. and 1200 rpm. 5 μl were taken per time point, the reaction was stopped by addition of SDS loading buffer. Samples were analyzed by immunoblotting with mouse monoclonal antibodies against myc (9E10).
as §1, §2

[4] = activation in mitotic Xenopus extracts in presence of peptide (lane 2i)
[5] = substance added to mitotically activated separase immunoprecipitates before SCC1-myc reaction mix

Row | Substance | formation of the p55 cleavage product of human separase [1] | separase forms labeled by the peptide [2, 4] | separase forms bound by the peptide ([2]; peptide added after activation in mitotic Xenopus extracts (lane 3i)) | separase forms labeled by the peptide ([2]; peptide added before activation in mitotic Xenopus extracts (lane 1i)) | relative effectiveness of the two yeast peptide inhibitors [3] | SCC1 cleavage by separase [3, 4] | SCC1 cleavage by separase ([3]; peptide added before activation and washed away before mitotic Xenopus extract (lane 1i)) | SCC1 cleavage by separase [3, 5]
1 | Bio-SVEQGR-amk: synthetic peptide with budding yeast SCC1 cleavage site SVEQGR, C-terminal acyloxymethyl ketone, N-terminal biotin (Biotin-SVEQGR-{acyloxymethyl ketone}) | largely inhibited | both the cleaved forms of separase and full-length separase were covalently labeled | bound exclusively to the cleaved forms of human separase | only the small amount of p60 that is already present in these immunoprecipitates was labeled | the more effective one of the two yeast peptide inhibitors | separase was unable to cleave SCC1 | separase could be activated normally to cleave SCC1 | inhibited SCC1 cleavage by separase; also recorded: able to block the ability of separase to cleave SCC1
2 | DREIMR-amk: peptide inhibitor based on the cleavage recognition site of human SCC1, DREIMR, acyloxymethyl ketone (DREIMR-{acyloxymethyl ketone}) |  |  |  |  |  |  |  | able to inhibit separase at a similar concentration as the peptide inhibitors derived from yeast
